{"source": "patent US11702442B2", "about": "“Cyclic dinucleotide compounds as sting agonists” (The Regents of the University of California, priority 2019, dated 2023)", "key": {"[1]": {"tested_on": "STING pathway", "test": "IRF3 phosphorylation in RAW 264.7 cells (immunoblot pIRF3 vs β-actin)", "assay_type": "cell-based, murine", "conditions": "RAW 264.7, 1, 5 and 10 μM CDN, 2 h after transfection", "method": "FIGS. 2A-2B show IRF3 phosphorylation induced by c-di-GMP and its analogues. […] 1, 5 and 10 μM of each CDN was used to transfect RAW 264.7 cells. Cells were lysed with NP-40 lysis buffer 2 h post transfection, 20 μg of total protein was loaded on SDS-polyacrylamide gel. Proteins were transferred to PVDF membrane after gel electrophoresis, and immunoblotted against pIRF3 and β-actin. […] The y-axis indicates relative intensity of pIRF3 compare to β-actin.\nTo analyze the immunostimulatory effects of all synthetic CDNs in greater detail, RAW 264.7 cells were treated with various concentrations of c-di-GMP, c-di-tzGMP, c-di-thGMP, c-GthGMP and c-GtzGMP and the phosphorylation of IRF3 to pIRF3 was evaluated. CDNs were thus transfected into RAW 264.7 murine cells with digitonin as described in previous studies.[7b,16] Cells were then lysed with NP-40 buffer 2 h after transfection, and total protein was collected for immunoblotting against phosphorylated IRF3 (pIRF3) and β-actin. […] Two other biological replicates produced similar trends (See FIG. S2 in Yi et al, ChemBioChem, Volume 21 (2020)).\nImmunoblotting. RAW 264.7 cells were plated on 24-well plates (5×10^5 cells per well) and incubate at 37° C. for 48 h. Cells were then transfected with 1-10 μM of CDN in a permeabilization buffer containing 10 μg/mL digitonin, 50 mM HEPES, pH 7, 100 mM KCl, 3 mM MgCl2, 85 mM sucrose, 1 mM ATP, 0.1 mM DTT, 0.2% BSA for 30 mins at 37° C., then incubated with regular growth medium for 2 h. Cells were lysed with NP-40 lysis buffer containing protease inhibitor cocktail (Roche), PhosSTOP (Roche) and PMSF, and total protein was collected and quantified by BCA assay. Protein extracts were resolved by SDS-PAGE with 7.5% gel and transferred to PVDF membrane. Proteins were detected with the following primary antibodies: rabbit anti-pIRF3 monoclonal antibody (Cell Signaling Technology), mouse anti-β actin monoclonal antibody (Sigma-Aldrich)."}, "[2]": {"tested_on": "STING pathway", "test": "IFN-β mRNA production in RAW 264.7 cells by RT-qPCR", "assay_type": "cell-based, murine", "method": "FIGS. 3A-3C provide IFN data. […] RAW 264.7 cells were transfected with 1, 5, 10 μM of c-di-GMP, c-di-^tzGMP, c-G^thGMP, c-di-G^thGMP and c-G^tzGMP, and incubated for 2, 4, 6 h before being lysed by TRIzol. RNA purification and RT-qPCR were conducted following the protocol described in the Experimental Section. FIG. 3B show IFN response after 2, 4, 6 h of incubation with 5 μM of CDNs. […] Two independent assays were performed in triplicates (n=2). Error bars indicate SD. See Yi et al, Tuning the Innante Immune Response to Cyclic Dinucleotides by Using Atomic Mutagenesis, ChemBioChem, Volume 21 (2020).\nAs most synthetic c-di-GMP analogues activated IRF3, the inventors analyzed their dose and time dependency for inducing IFN-β mRNA production by using RT-qPCR. RAW 264.7 cells were transfected with 1, 5 and 10 μM of CDNs as described above and incubated for 2, 4 and 6 h. Total RNA was isolated and used for RT-qPCR. As shown in FIGS. 3A-3B, c-di-GMP induced the most IFN-β mRNA production 4 h post transfection, whereas the highest response was observed after 2 h for c-di-tzGMP, c-GthGMP, and c-GtzGMP.\nRT-qPCR. RAW 264.7 cells were plated on 48-well plates (2.5×10^5 cells per well) and transfected with CDN using the same method as above after 48 h of incubation at 37° C. Cells were then incubate with regular growth medium for designated time, and total RNA was isolated with TRIzol® reagent and purified with RNeasy mini kit (Qiagen) following the manufacturer's protocol. Following elution, RNA yields were evaluated using a Nanodrop spectrophotometer (Nanodrop technologies). RNA samples were converted to cDNA with SuperScript III First-Strand Synthesis kit (Invitrogen) with random hexamers following the manufacturer's protocol. Quantitative PCR (SYBR Green) analysis was performed in duplicates on an Applied Biosystems 7300 Real-time PCR system (Invitrogen). Transcription level of IFN-β gene of each sample was normalized to housekeeping gene TBP and then to untreated samples (UT) using the delta-delta CT method."}, "[3]": {"molecular_target": "T1, rocR (Pseudomonas aeruginosa, UniProt Q9HX69)", "T1 construct": "made in house; host or cells: Escherichia coli BL21(DE3)", "T1 sequence (Q9HX69 whole entry, the tested form may be a part)": "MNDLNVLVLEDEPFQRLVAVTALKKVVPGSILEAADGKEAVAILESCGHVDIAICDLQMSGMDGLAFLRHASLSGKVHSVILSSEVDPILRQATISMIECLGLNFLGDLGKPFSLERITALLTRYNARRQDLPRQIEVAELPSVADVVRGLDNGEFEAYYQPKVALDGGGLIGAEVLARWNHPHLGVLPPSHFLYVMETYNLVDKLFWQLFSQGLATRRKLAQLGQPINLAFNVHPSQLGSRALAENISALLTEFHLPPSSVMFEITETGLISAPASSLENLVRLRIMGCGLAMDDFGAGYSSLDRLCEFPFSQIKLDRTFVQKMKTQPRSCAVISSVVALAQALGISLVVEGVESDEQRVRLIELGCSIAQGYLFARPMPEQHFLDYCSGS", "test": "rocR-mediated CDN hydrolysis monitored by HPLC", "assay_type": "biochemical, P. aeruginosa", "text": "[1a,27] rocR is a PDE that contains an EAL domain and specifically recognizes and cleaves c-di-GMP into the linear dinucleotide pGpG. […] [28a,29]\nRocR is reported to follow Michaelis-Menten kinetics. [27c,28a] Scheme 2a was therefore used to analyze the reaction kinetics, where k1 and k−1 describe the enzyme/substrate association and dissociation, respectively, while k2 reflects the cleavage reaction. Equations (10)-(13) were thus used to extract the rate constants. When “asymmetrical” mixed c-di-GMP analogues are treated with rocR, the enzyme may, in principle, recognize and cleave either phosphodiester bonds, producing pN1pN2 and pN2pN1. Assuming the two products result from different binding orientation of the heterodimeric CDNs, Scheme 2b is therefore introduced to model the cleavage reactions, where k1, k−1 and k2 reflect the association/dissociation and cleavage of the heterodimeric CDN in one orientation, respectively, and k3, k−3 and k4 reflect the other. Equations (14)-(19) were used to extract the rate constants.\nEquations(10)-(19) d[S]/dt=−k1[E][S]+k−1[ES] (10) d[E]/dt=−k1[E][S]+k−1[ES]+k2[ES] (11) d[P]/dt=k2[ES] (12) d[ES]/dt=k1[E][S]−k−1[ES]−k2[ES] (13) d[S]/dt=−k1[E][S]+k−1[ES1]−k3[E][S]+k−3[ES2] (14) d[P1]/dt=k2[ES1] (15) d[P2]/dt=k4[ES2] (16) d[E]/dt=−(k1+k3)[E][S]+(k−1+k2)[ES1]+[…][ES2]] (17) d[ES1]/dt=k1[E][S]−k−1[ES1]−k2[ES1] (18) d[ES2]/dt=k3[E][S]−k−3[ES2]−k4[ES2] (19)\nCDN hydrolysis with rocR. […] of CDN was incubated with 100 nM of rocR in a buffer containing 100 mM Tris-HCI, pH 8, 20 mM KCI, 25 mM MgCl2 at 37° C. Aliquots of the reaction mixture were taken out at designated time points and quenched with 100 mM CaCl2. All aliquots were filtered before subjected to reverse-phase HPLC analysis. The reaction mixture was separated by Sepax Bio C-18 column (250×10 mm, 5 µm particle size) with a gradient of 0.1-15% of 10 mM NH4OAc, pH7 in Me0H in 12 minutes at 25° C. or 50° C. (only for reactions of c-GtzGMP and c-di-tzGMP) on an Agilent 1200 series HPLC system (Agilent Technologies).\nData Analysis and curve fitting. […] The relative concentrations were plotted against time."}}, "data": [{"smiles": "Nc1nc2c([C@@H]3O[C@@H]4COP(=O)(O)O[C@H]5[C@@H](O)[C@H](n6cnc7c(=O)[nH]c(N)nc76)O[C@@H]5COP(=O)(O)O[C@H]4[C@H]3O)snc2c(=O)[nH]1", "note": "[c-G^tzGMP]", "values": [{"measurement": "IRF3 phosphorylation (pIRF3), concentration dependence", "setting": "[1]", "result": "Increasing amounts of phosphorylated IRF3"}, {"measurement": "IFN-β mRNA production / IFN response", "setting": "[2]; RAW 264.7, 1, 5, 10 μM CDN, 2, 4, 6 h", "result": "earlier and stronger maximum IFN-β response compared to the native c-di-GMP"}, {"measurement": "time post transfection of highest IFN-β mRNA production", "setting": "[2]; RAW 264.7, 1, 5 and 10 μM CDN, 2, 4 and 6 h tested", "result": 2, "unit": "h"}, {"measurement": "order of IFN-β induction", "setting": "[2]; RAW 264.7, RT-qPCR, FIG. 3", "result": "c-GthGMP>c-di-tzGMP>c-GtzGMP>c-di-GMP>c-di-thGMP"}, {"measurement": "k2 (cleavage reaction)", "setting": "[3]; 100 nM rocR, 37° C.", "result": "3.07 ± 0.25", "unit": "s⁻¹"}, {"measurement": "k2", "setting": "[3]; 100 nM rocR, 37° C., Table 3", "result": "0.096 ± 0.091", "unit": "s⁻¹"}, {"measurement": "k3", "setting": "[3]; 100 nM rocR, 37° C., Table 3", "result": "3.07 ± 0.25", "unit": "s⁻¹"}, {"measurement": "k3", "setting": "[3]; 100 nM rocR, 37° C., association in second orientation of heterodimeric CDN", "result": "1.8e+06 ± 100000", "unit": "M⁻¹ s⁻¹"}, {"measurement": "k4", "setting": "[3]; 100 nM rocR, 37° C., cleavage in second orientation", "result": "0.34 ± 0.01", "unit": "s⁻¹"}, {"measurement": "k−3", "setting": "[3]; 100 nM rocR, 37° C., dissociation in second orientation", "result": "0.135 ± 0.007", "unit": "s⁻¹"}, {"measurement": "k1", "setting": "[3]; 100 nM rocR, 37° C., enzyme/substrate association", "result": "1.85e+06 ± 70000", "unit": "M⁻¹ s⁻¹"}, {"measurement": "order of gradually reduced rocR hydrolysis rate", "setting": "[3]; FIG. 10F", "result": "c-di-GMP, c-di-^tzGMP, c-G^tzGMP, c-G^thGMP and lastly c-di-^thGMP"}, {"measurement": "final percentage of product P1", "setting": "[3]; Scheme 2b", "result": 58, "unit": "%"}, {"measurement": "final percentage of product P2", "setting": "[3]; Scheme 2b", "result": 42, "unit": "%"}, {"measurement": "products of rocR-mediated cleavage", "setting": "[3]; mixed CDNs, HPLC", "result": "two products in nearly the same amount"}]}]}
